Source: article PMC7910296, “Phosphorescent Ir(III) complexes conjugated with oligoarginine peptides serve as optical probes for in vivo microvascular imaging” (Scientific Reports, 2021)

Key:
[1] = Absorption and emission spectra; format: physicochemical; details: MeCN with 1% DMSO, room temperature
Procedure: Absorption and emission spectra were recorded on a UV–Vis spectrophotometer (Ubest V-550, JASCO) and a photonic multichannel analyzer PMA-12 (C11027-01, Hamamatsu Photonics) equipped with a monochromatized Xe arc lamp, respectively. The emission spectra were fully corrected for spectral sensitivity.

[2] = tested on: vascular endothelium; experiment: In vivo luminescence intensity and lifetime imaging after intravenous administration
[3] = Water solubility / aggregate formation in aqueous solution; format: physicochemical
Source text: Ir(III) complexes BTQ-Rn (n = 4, 8, 12, 16) with different lengths of arginine peptides in the ligand (Fig. 1) were obtained by chemical synthesis, including solid-phase synthesis of the peptides. The synthetic details and characterization of BTQ-Rn are described in Supplementary Information. We first examined the spectral and photophysical properties of the synthesized BTQ-Rn (n = 4, 8, 12, 16) in MeCN and Tris–HCl buffer (pH 7.0) and compared them to the parent complex BTQphen. Figure 2A,B show the absorption and emission spectra of BTQphen and BTQ-R12 (a representative BTQ-Rn) in MeCN. […] The first absorption band of BTQ-R12, which has a molar absorption coefficient of 7600 mol^−1 dm^3 cm^−1 at 496 nm, can be assigned to the singlet metal-to-ligand charge transfer (^1MLCT) transition. Emissions appear in the red to near-infrared region, with the maximum at around 660 nm, and show a very large Stokes shift. The emission decay profiles follow single-exponential functions, with lifetimes of 5.7 μs for BTQphen and 5.9 μs for BTQ-R12 in deaerated MeCN, and 0.28 μs for BTQphen and BTQ-R12 in aerated MeCN (Table 1). The extremely long lifetimes in deaerated solution and significant quenching by dissolved oxygen indicate that emission is due to phosphorescence. […]

[4] = Phosphorescence lifetime in solution (time-correlated single-photon counting); format: physicochemical; details: 37 °C
Procedure: (§1) Phosphorescence lifetimes were measured with a time-correlated single-photon counting fluorimeter (Quantaurus-Tau C11367G, Hamamatsu Photonics). A laser diode (M12488-35, Hamamatsu Photonics; 481 nm, pulse width 70 ps) was used as the excitation light source. The temperature of the sample solution was controlled by circulating water through a jacket cuvette holder from a temperature controlled bath (RTE7, Neslab). Phosphorescence quantum yields were determined on an absolute photoluminescence quantum yield measurement system (C9920-02, Hamamatsu Photonics) consisting of a Xe arc lamp, a monochromator, an integrating sphere, and a multichannel detector[41].

[5] = Phosphorescence quantum yield (absolute photoluminescence quantum yield system); format: physicochemical; details: room temperature
Procedure: as §1

emission maximum [1]	aggregate formation ([3]; aqueous solution / Tris–HCl buffer (pH 7.0), from spectra and single-exponential decay)	water solubility ([3]; aqueous solution, in words)	τp, phosphorescence lifetime ([4]; aerated MeCN) [µs]	τp0, phosphorescence lifetime ([4]; deaerated MeCN) [µs]	Φp, phosphorescence quantum yield ([5]; aerated MeCN)	Φp0, phosphorescence quantum yield ([5]; deaerated MeCN)	Molecule	localization in renal cortex ([2]; mouse kidney, about 1 h after intravenous administration (100 nmol; FITC-lectin 1 mg/mL, 50 μL), luminescence intensity images)	localization in liver ([2]; living mice, PC6S 50 nmol iv, fluorescence intensity images of liver)
around 660 nm	forms aggregates	extremely low water solubility	0.28	5.7	0.015	0.32	(btq)2Ir(phen-pipe) [BTQphen]	localized in tubular cells rather than in capillaries	–
–	–	–	–	–	–	–	CCN(CC)c1ccc2cc3cc(-c4nc5ccccc5s4)c(=O)oc3cc2c1 [PC6S, reference compound]	–	taken up into hepatocytes and likely accumulates in LDs and the ER
